Data from patent US9695155B2, “Herbicidal substituted pyrimidinyloxy benzene compounds” (E. I. DU PONT DE NEMOURS AND COMPANY, priority 2013, dated 2017).

Columns and labels:
pigweed [1] = experiment: Test C postemergence; type: in vivo, Amaranthus retroflexus
Method in brief: (§1)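 Seeds are planted in blended loam soil and sand and treated preemergence, while seedlings in a peat moss/vermiculite medium receive postemergence sprays at 2 to 18 cm height. All plants stay in the greenhouse for 13 to 15 days before visual comparison with controls on a 0–100 scale.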

lambsquarters [2] = experiment: Test C preemergence; type: in vivo, Chenopodium album; settings: preemergence
Method in brief: as §1

Italian ryegrass = experiment: Test C postemergence; type: in vivo, Lolium multiflorum
Method in brief: as §1

pigweed [3] = experiment: Test C preemergence; type: in vivo, Amaranthus retroflexus; settings: preemergence
Method in brief: as §1

rice = experiment: Test B flooded paddy test; type: in vivo, Oryza sativa; settings: Flood, 250 g ai/ha, 0 to 100 scale where 0 is no effect and 100 is complete control
Method in brief: (§2)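 Seedlings are raised to two leaves, flooded to a depth of 3 cm and dosed by adding the compound to the floodwater. Water level is kept constant, and plants are scored visually versus controls 13–15 days later (0 = no effect, 100 = complete control).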

lambsquarters [4] = experiment: Test C postemergence; type: in vivo, Chenopodium album
Method in brief: as §1

kochia = experiment: Test C postemergence; type: in vivo, Kochia scoparia
Method in brief: as §1

blackgrass = experiment: Test C postemergence; type: in vivo, Alopecurus myosuroides
Method in brief: as §1

wheat, winter = experiment: Test C preemergence; type: in vivo, Triticum aestivum; settings: preemergence
Method in brief: as §1

yellow nutsedge = experiment: Test C preemergence; type: in vivo, Cyperus esculentus; settings: preemergence
Method in brief: as §1

Heteranthera limosa = experiment: Test B flooded paddy test; type: in vivo; settings: Flood, 250 g ai/ha, 0 to 100 scale where 0 is no effect and 100 is complete control
Method in brief: as §2

corn = experiment: Test A preemergence; type: in vivo, Zea mays; settings: 0 to 100 scale where 0 is no effect and 100 is complete control
Method in brief: (§3)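 Scoring: eye-based comparison with untreated controls, 0 for no effect through 100 for complete control, at about day 10. Treatments: directed soil spray preemergence; foliar spray postemergence on 2–10 cm plants at the one- to two-leaf stage. Medium: loam soil with sand.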

morningglory = experiment: Test A postemergence; type: in vivo, Ipomoea spp.; settings: 0 to 100 scale where 0 is no effect and 100 is complete control
Method in brief: as §3

barnyardgrass = experiment: Test C postemergence; type: in vivo, Echinochloa crus-galli
Method in brief: as §1

soybean = experiment: Test C postemergence; type: in vivo, Glycine max
Method in brief: as §1

[5] = 16 g ai/ha, postemergence, 0 is no effect, 100 is complete control
[6] = 31 g ai/ha, postemergence, visual rating, scale 0 to 100 (0 no effect, 100 complete control), 13 to 15 days
[7] = 125 g ai/ha, postemergence, visual rating, scale 0 to 100 (0 no effect, 100 complete control)
[8] = Postemergence, 62 g ai/ha, scale 0 to 100 (0 no effect, 100 complete control)
[9] = 16 g ai/ha, scale 0 to 100 (0 no effect, 100 complete control)
[10] = 62 g ai/ha, scale 0 (no effect) to 100 (complete control)
[11] = 125 g ai/ha, scale 0 (no effect) to 100 (complete control)

FC(F)(F)c1cnn(-c2c(Cl)cccc2Oc2ncc(Cl)cn2)c1 [Compound 167]
Plant response rating (0 to 100), Pigweed (pigweed [1]; [5]): 80
Pigweed plant response rating (pigweed [1]; [6]): 90
Plant response rating, Pigweed (pigweed [1]; [7]): 98
Plant response rating, Pigweed (pigweed [1]; [8]): 95
Lambsquarters plant response rating (lambsquarters [2]; [9]): 75
Lambsquarters plant response rating (lambsquarters [2]; [10]): 100
Lambsquarters plant response rating (lambsquarters [2]; [11]): 100
Plant response rating (0 to 100), Ryegrass, Italian (Italian ryegrass; [5]): 0
Ryegrass, Italian plant response rating (Italian ryegrass; [6]): 10
Plant response rating, Ryegrass, Italian (Italian ryegrass; [7]): 30
Plant response rating, Ryegrass, Italian (Italian ryegrass; [8]): 5
Pigweed plant response rating (pigweed [3]; [9]): 100
Pigweed plant response rating (pigweed [3]; [10]): 100
Pigweed plant response rating (pigweed [3]; [11]): 100
Plant response rating, Rice (rice): 0
Plant response rating (0 to 100), Lambsquarters (lambsquarters [4]; [5]): 80
Lambsquarters plant response rating (lambsquarters [4]; [6]): 90
Plant response rating, Lambsquarters (lambsquarters [4]; [7]): 100
Plant response rating, Lambsquarters (lambsquarters [4]; [8]): 98
Plant response rating (0 to 100), Kochia (kochia; [5]): 90
Kochia plant response rating (kochia; [6]): 90
Plant response rating, Kochia (kochia; [7]): 95
Plant response rating, Kochia (kochia; [8]): 90
Plant response rating (0 to 100), Blackgrass (blackgrass; [5]): 0
Blackgrass plant response rating (blackgrass; [6]): 5
Plant response rating, Blackgrass (blackgrass; [7]): 30
Plant response rating, Blackgrass (blackgrass; [8]): 5
Wheat plant response rating (wheat, winter; [9]): 0
Wheat plant response rating (wheat, winter; [10]): 5
Wheat plant response rating (wheat, winter; [11]): 50
Nutsedge, Yellow plant response rating (yellow nutsedge; [9]): 0
Nutsedge, Yellow plant response rating (yellow nutsedge; [10]): 10
Nutsedge, Yellow plant response rating (yellow nutsedge; [11]): 60
Plant response rating, Ducksalad (Heteranthera limosa): 100
Plant response rating, Corn (corn; 125 g ai/ha): 10
Corn plant response rating (corn; 500 g ai/ha): 40
Morningglory plant response rating (morningglory; 125 g ai/ha): 80
Plant response rating, Morningglory (morningglory; 500 g ai/ha): 100
Plant response rating (0 to 100), Barnyardgrass (barnyardgrass; [5]): 5
Barnyardgrass plant response rating (barnyardgrass; [6]): 5
Plant response rating, Barnyardgrass (barnyardgrass; [7]): 10
Plant response rating, Barnyardgrass (barnyardgrass; [8]): 10
Plant response rating (0 to 100), Soybean (soybean; [5]): 20
Soybean plant response rating (soybean; [6]): 30
Plant response rating, Soybean (soybean; [7]): 60
Plant response rating, Soybean (soybean; [8]): 60

FC(F)(F)COc1cnn(-c2ccccc2Oc2ncc(Cl)cn2)c1 [Compound 138, 5-chloro-2-[2-[4-(2,2,2-trifluoroethoxy)-1H-pyrazol-1-yl]phenoxy]pyrimidine]
pest or weed control at 16 g/ha (pigweed [1]; Amaranthus retroflexus, post-emergence, 16 g ai/ha, postemergence, 0 is no effect, 100 is complete control, read-out: Plant response rating (0 to 100), Pigweed): 60%
pest or weed control at 125 g/ha (pigweed [1]; Amaranthus retroflexus, post-emergence, 125 g ai/ha, postemergence, visual rating, scale 0 to 100 (0 no effect, 100 complete control), read-out: Plant response rating, Pigweed): 80%
pest or weed control at 62 g/ha (pigweed [1]; Amaranthus retroflexus, post-emergence, Postemergence, 62 g ai/ha, scale 0 to 100 (0 no effect, 100 complete control), read-out: Plant response rating, Pigweed): 80%
pest or weed control at 16 g/ha (lambsquarters [2]; Chenopodium album, pre-emergence, 16 g ai/ha, scale 0 to 100 (0 no effect, 100 complete control), read-out: Lambsquarters plant response rating): 100%
pest or weed control at 62 g/ha (lambsquarters [2]; Chenopodium album, pre-emergence, 62 g ai/ha, scale 0 (no effect) to 100 (complete control), read-out: Lambsquarters plant response rating): 100%
pest or weed control at 125 g/ha (lambsquarters [2]; Chenopodium album, pre-emergence, 125 g ai/ha, scale 0 (no effect) to 100 (complete control), read-out: Lambsquarters plant response rating): 100%
pest or weed control at 16 g/ha (Italian ryegrass; Lolium multiflorum, post-emergence, 16 g ai/ha, postemergence, 0 is no effect, 100 is complete control, read-out: Plant response rating (0 to 100), Ryegrass, Italian): 0%
pest or weed control at 125 g/ha (Italian ryegrass; Lolium multiflorum, post-emergence, 125 g ai/ha, postemergence, visual rating, scale 0 to 100 (0 no effect, 100 complete control), read-out: Plant response rating, Ryegrass, Italian): 5%
pest or weed control at 62 g/ha (Italian ryegrass; Lolium multiflorum, post-emergence, Postemergence, 62 g ai/ha, scale 0 to 100 (0 no effect, 100 complete control), read-out: Plant response rating, Ryegrass, Italian): 0%
pest or weed control at 16 g/ha (pigweed [3]; Amaranthus retroflexus, pre-emergence, 16 g ai/ha, scale 0 to 100 (0 no effect, 100 complete control), read-out: Pigweed plant response rating): 85%
pest or weed control at 62 g/ha (pigweed [3]; Amaranthus retroflexus, pre-emergence, 62 g ai/ha, scale 0 (no effect) to 100 (complete control), read-out: Pigweed plant response rating): 100%
pest or weed control at 125 g/ha (pigweed [3]; Amaranthus retroflexus, pre-emergence, 125 g ai/ha, scale 0 (no effect) to 100 (complete control), read-out: Pigweed plant response rating): 100%
plant injury at 250 g/ha (rice; Oryza sativa, read-out: Plant response rating, Rice): 0%
pest or weed control at 16 g/ha (lambsquarters [4]; Chenopodium album, post-emergence, 16 g ai/ha, postemergence, 0 is no effect, 100 is complete control, read-out: Plant response rating (0 to 100), Lambsquarters): 20%
pest or weed control at 125 g/ha (lambsquarters [4]; Chenopodium album, post-emergence, 125 g ai/ha, postemergence, visual rating, scale 0 to 100 (0 no effect, 100 complete control), read-out: Plant response rating, Lambsquarters): 75%
pest or weed control at 62 g/ha (lambsquarters [4]; Chenopodium album, post-emergence, Postemergence, 62 g ai/ha, scale 0 to 100 (0 no effect, 100 complete control), read-out: Plant response rating, Lambsquarters): 60%
pest or weed control at 16 g/ha (kochia; Bassia scoparia, post-emergence, 16 g ai/ha, postemergence, 0 is no effect, 100 is complete control, read-out: Plant response rating (0 to 100), Kochia): 80%
pest or weed control at 125 g/ha (kochia; Bassia scoparia, post-emergence, 125 g ai/ha, postemergence, visual rating, scale 0 to 100 (0 no effect, 100 complete control), read-out: Plant response rating, Kochia): 95%
pest or weed control at 62 g/ha (kochia; Bassia scoparia, post-emergence, Postemergence, 62 g ai/ha, scale 0 to 100 (0 no effect, 100 complete control), read-out: Plant response rating, Kochia): 95%
pest or weed control at 16 g/ha (blackgrass; Alopecurus myosuroides, post-emergence, 16 g ai/ha, postemergence, 0 is no effect, 100 is complete control, read-out: Plant response rating (0 to 100), Blackgrass): 0%
pest or weed control at 125 g/ha (blackgrass; Alopecurus myosuroides, post-emergence, 125 g ai/ha, postemergence, visual rating, scale 0 to 100 (0 no effect, 100 complete control), read-out: Plant response rating, Blackgrass): 10%
pest or weed control at 31 g/ha (blackgrass; Alopecurus myosuroides, post-emergence, Postemergence, 31 g ai/ha, scale 0 to 100 (0 no effect, 100 complete control), 13 to 15 days, read-out: Plant response rating, Blackgrass): 5%
pest or weed control at 62 g/ha (blackgrass; Alopecurus myosuroides, post-emergence, Postemergence, 62 g ai/ha, scale 0 to 100 (0 no effect, 100 complete control), read-out: Plant response rating, Blackgrass): 5%
plant injury at 16 g/ha (wheat, winter; Triticum aestivum, pre-emergence, 16 g ai/ha, scale 0 to 100 (0 no effect, 100 complete control), read-out: Wheat plant response rating): 0%
plant injury at 62 g/ha (wheat, winter; Triticum aestivum, pre-emergence, 62 g ai/ha, scale 0 (no effect) to 100 (complete control), read-out: Wheat plant response rating): 5%
plant injury at 125 g/ha (wheat, winter; Triticum aestivum, pre-emergence, 125 g ai/ha, scale 0 (no effect) to 100 (complete control), read-out: Wheat plant response rating): 5%
pest or weed control at 16 g/ha (yellow nutsedge; Cyperus, pre-emergence, 16 g ai/ha, scale 0 to 100 (0 no effect, 100 complete control), read-out: Nutsedge, Yellow plant response rating): 5%
pest or weed control at 62 g/ha (yellow nutsedge; Cyperus, pre-emergence, 62 g ai/ha, scale 0 (no effect) to 100 (complete control), read-out: Nutsedge, Yellow plant response rating): 25%
pest or weed control at 125 g/ha (yellow nutsedge; Cyperus, pre-emergence, 125 g ai/ha, scale 0 (no effect) to 100 (complete control), read-out: Nutsedge, Yellow plant response rating): 55%
pest or weed control at 250 g/ha (Heteranthera limosa; Heteranthera limosa, read-out: Plant response rating, Ducksalad): 90%
pest or weed control at 16 g/ha (barnyardgrass; Echinochloa crus-galli, post-emergence, 16 g ai/ha, postemergence, 0 is no effect, 100 is complete control, read-out: Plant response rating (0 to 100), Barnyardgrass): 5%
pest or weed control at 125 g/ha (barnyardgrass; Echinochloa crus-galli, post-emergence, 125 g ai/ha, postemergence, visual rating, scale 0 to 100 (0 no effect, 100 complete control), read-out: Plant response rating, Barnyardgrass): 5%
pest or weed control at 31 g/ha (barnyardgrass; Echinochloa crus-galli, post-emergence, Postemergence, 31 g ai/ha, scale 0 to 100 (0 no effect, 100 complete control), 13 to 15 days, read-out: Plant response rating, Barnyardgrass): 5%
pest or weed control at 62 g/ha (barnyardgrass; Echinochloa crus-galli, post-emergence, Postemergence, 62 g ai/ha, scale 0 to 100 (0 no effect, 100 complete control), read-out: Plant response rating, Barnyardgrass): 5%
Soybean plant response rating (crop injury, 0-100 scale) at 16 g/ha (soybean; Glycine max, post-emergence, 16 g ai/ha, postemergence, 0 is no effect, 100 is complete control): 40%
Soybean plant response rating (crop injury, 0-100 scale) at 125 g/ha (soybean; Glycine max, post-emergence, 125 g ai/ha, postemergence, visual rating, scale 0 to 100 (0 no effect, 100 complete control), read-out: Plant response rating, Soybean): 95%
Soybean plant response rating (crop injury, 0-100 scale) at 62 g/ha (soybean; Glycine max, post-emergence, Postemergence, 62 g ai/ha, scale 0 to 100 (0 no effect, 100 complete control)): 65%
